Where two headings read alike, the source gives them in different places.
Columns and labels:
[1] = Brain and plasma concentrations in mice after intraperitoneal administration (LC-MS-MS), non-compartmental analysis; type: in vivo; details: for half-life / AUC(0-inf) / concentration at 0.5 h / concentration at 1 h / concentration at 2 h / concentration at 4 h / concentration at 24 h / CL/F / Vd/F: 10 mg/kg; for half-life: read-out: t1/2 (converted); for k el: read-out: Lambda_z (converted)
Water solubility = type: physicochemical; details: distilled water, thermodynamic from solid, 25 °C, salt tested
Procedure: Distilled water was added slowly by microsyringe to 10–15 mg of drug in a glass vial, swirling until no solid was visible.

[2] = Octanol-buffer distribution (log D7.4); type: physicochemical; details: 1-octanol/PBS
κ opioid receptor = tested on: κ opioid receptor; parameters: method as in PMID 15464069; details: intragastric administration; cited from earlier work
[3] = male, Swiss-Webster, mouse, ip, brain NCA, 10 mg/kg i.p.
[4] = male, Swiss-Webster, mouse, ip, plasma NCA, 10 mg/kg i.p.
[5] = male, Swiss-Webster, mouse, plasma, intraperitoneal, read-out: Conc (plasma, NCA input)
[6] = male, Swiss-Webster, mouse, plasma, ip, 10 mg/kg i.p., read-out: mean (plasma)
[7] = male, Swiss-Webster, mouse, plasma, ip, 10 mg/kg i.p., individual mice, read-out: [drug],plasma (free base equivalent)

CC(C)[C@@H](CN1CC[C@@](C)(c2cccc(O)c2)[C@@H](C)C1)NC(=O)[C@H]1Cc2ccc(O)cc2CN1 [JDTic, (3R)-7-Hydroxy-N-((1S)-1-{[(3R,4R)-4-(3-hydroxyphenyl)-3,4-dimethyl-1-piperidinyl]methyl}-2-methylpropyl)-1,2,3,4-tetrahydro-3-isoquinolinecarboxamide]
half-life ([1]; male, Swiss-Webster, mouse, brain, ip, brain NCA, 10 mg/kg i.p.): 9.17 days
AUC(0-inf) ([1]; male, Swiss-Webster, mouse, brain, ip, brain, 10 mg kg^-1 i.p., non-compartmental analysis, read-out: AUC 0–∞,brain): 10300 ng·h/mL
Tmax ([1]; male, Swiss-Webster, mouse, in vivo, ip, ·2HCl salts, 10 mg kg^-1 i.p., mice): 30 min
AUC(0-t) [1, 3]: 4400 ng·h/mL
Tmax [1, 3]: 30 min
Cmax ([1]; male, Swiss-Webster, mouse, ip, brain NCA, 10 mg/kg i.p., read-out: Cmax): 71.1 ng/mL
k el [1, 3]: 8.75e-07 s⁻¹
AUC(0-t) [1, 4]: 866 ng·h/mL
Tmax [1, 4]: 30 min
k el [1, 4]: 3.75e-05 s⁻¹
MRT inf ([1]; male, Swiss-Webster, mouse, ip, plasma NCA, 10 mg/kg i.p., read-out: MRT 0-inf_obs): 4.3 h
Cmax ([1]; male, Swiss-Webster, mouse, ip, plasma, 10 mg kg^-1 i.p., mice, read-out: C max,p): 245 ng/mL
concentration at 0.5 h [1, 5]: 245 ng/mL
concentration at 1 h [1, 5]: 154 ng/mL
concentration at 2 h [1, 5]: 56.9 ng/mL
concentration at 4 h [1, 5]: 46.6 ng/mL
concentration at 24 h [1, 5]: 3 ng/mL
concentration at 0.5 h [1, 6]: 245 ng/mL
concentration at 1 h [1, 6]: 154 ng/mL
concentration at 2 h [1, 7]: 42.3 ng/mL
concentration at 2 h [1, 6]: 57 ng/mL
concentration at 4 h [1, 6]: 47 ng/mL
concentration at 24 h [1, 7]: 5 ng/mL
concentration at 24 h ([1]; male, Swiss-Webster, mouse, plasma, ip, 10 mg/kg i.p., <MRC substituted by MRC/2, read-out: mean (plasma)): 3 ng/mL
AUC(0-inf) ([1]; male, Swiss-Webster, mouse, plasma, ip, plasma NCA, 10 mg/kg i.p., read-out: AUC 0-inf_obs): 888 ng·h/mL
CL/F ([1]; male, Swiss-Webster, mouse, plasma, ip, plasma NCA, 10 mg/kg i.p., read-out: Cl/F_obs (converted)): 188 mL/min/kg
Vd/F ([1]; male, Swiss-Webster, mouse, plasma, ip, plasma NCA, 10 mg/kg i.p., read-out: Vz/F_obs): 83.3 L/kg
half-life ([1]; male, Swiss-Webster, mouse, plasma, ip, plasma NCA, 10 mg/kg i.p.): 0.214 days
AUC(0-inf) ([1]; male, Swiss-Webster, mouse, plasma, ip, plasma, 10 mg kg^-1 i.p., non-compartmental analysis, read-out: AUC 0–∞,p): 888 ng·h/mL
CL/F ([1]; male, Swiss-Webster, mouse, plasma, ip, plasma, 10 mg kg^-1 i.p., non-compartmental analysis, read-out: CL/F (converted)): 18.3 mL/min/kg
Vd/F ([1]; male, Swiss-Webster, mouse, plasma, ip, plasma, 10 mg kg^-1 i.p., non-compartmental analysis, read-out: V z /F): 83 L/kg
Decline of mean brain level ([1]; over 24 hours, 10 mg kg^-1 i.p.): 56%
AUMC 0-inf_obs ([1]; plasma NCA, 10 mg/kg i.p.): 3814.94 ng/ml*h^2
Tlag ([1]; plasma NCA, 10 mg/kg i.p.): 0 h
Maximal plasma concentration relative to those after nor-BNI and GNTI ([1]; same dose, 10 mg kg^-1 i.p.): less than 10%
C max,brain,u ([1]; unbound brain, 10 mg kg^-1 i.p., in vivo brain binding assumed at least 3-fold greater than homogenate): < 4 nmol/L
Decline of mean plasma concentration from peak ([1]; within 1 hour, 10 mg kg^-1 i.p.): 37%
Decline of mean plasma concentration from peak ([1]; within 2 hours, 10 mg kg^-1 i.p.): 77%
Decline of mean plasma concentration from peak ([1]; within 4 hours, 10 mg kg^-1 i.p.): at least 80%
solubility (Water solubility): > 45 mM
logD ([2]; pH 7.4, pooled mixing times 1, 10, 30 min): 1.84
logD at 1 min ([2]; mixing time 1 min, octanol/PBS pH 7.4): 1.84
logD at 10 min ([2]; mixing time 10 min, octanol/PBS pH 7.4): 1.9
logD at 30 min ([2]; mixing time 30 min, octanol/PBS pH 7.4): 1.77
Delay in onset of κ antagonism (κ opioid receptor): greater than 6 hours

From paper PMC3411462, “Long-acting κ opioid antagonists nor-BNI, GNTI and JDTic: pharmacokinetics in mice and lipophilicity” (BMC Pharmacology, 2012)
